Source: PubChem BioAssay AID1963436 (Molecular Pharmacology Branch, DTP, NCI, 2024)
pIC50: −log10 of the molar value. Where “and” joins values, the source holds several entries; their conditions need not be identical. Identical values can stand only once.

Test system: OVCAR-5 complex spheroid (HUVEC/MSC), viability % T/C
Test: Anticancer human tumor OVCAR-5 cell line growth inhibition [Asc];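 note: spheroids exposed to agents for 7 days before readout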;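 for viability, T/C: 100% = DMSO vehicle-treated wells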
Conditions: for viability, T/C: stronger effect = lower value
How it was run: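 Tumor cells were grown as complex spheroids with human endothelial cells (HUVEC) and human mesenchymal stem cells as stroma. Agents were tested alone and in combination, in half-log steps down from the clinical Cmax, or from 10 microM where Cmax was unknown.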

In the case of O=C(c1ccc(F)c(F)c1Nc1ccc(I)cc1F)N1CC(O)([C@@H]2CCCCN2)C1 + CCN1C(C(=O)NC23CCC(C(=O)O)(CC2)CC3)C(c2cccc(Cl)c2F)C2(C(=O)Nc3cc(Cl)ccc32)C12CCCCC2, the pIC50 (curve of first compound, second compound 0.03 µM) was 7.02, the pIC50 (curve of first compound, second compound 0.0949 µM) was 7.09 and the pIC50 (curve of first compound, second compound 0.3 µM) was 7.08. It also gave a pIC50 (curve of first compound, second compound 0.949 µM) of 7.09, a pIC50 (curve of first compound, second compound 3 µM) of 7.25 and a viability, T/C (second compound 0.03 µM, first compound 0.00316 µM) of 90.3%. The viability, T/C (second compound 0.03 µM, first compound 0.01 µM) was 88.7%, the viability, T/C (second compound 0.03 µM, first compound 0.0316 µM) was 68.4% and the viability, T/C (second compound 0.03 µM, first compound 0.1 µM) was 49.4%. It also gave a viability, T/C (second compound 0.03 µM, first compound 0.316 µM) of 41.6%, a viability, T/C (second compound 0.03 µM, first compound 1 µM) of 34.6% and a viability, T/C (second compound 0.0949 µM, first compound 0.00316 µM) of 99.7%. It also gave a viability, T/C (second compound 0.0949 µM, first compound 0.01 µM) of 92.9%, a viability, T/C (second compound 0.0949 µM, first compound 0.0316 µM) of 66.8% and a viability, T/C (second compound 0.0949 µM, first compound 0.1 µM) of 45.5%. It also gave a viability, T/C (second compound 0.0949 µM, first compound 0.316 µM) of 42.9%, a viability, T/C (second compound 0.0949 µM, first compound 1 µM) of 32.1% and a viability, T/C (second compound 0.3 µM, first compound 0.00316 µM) of 94.9%. The viability, T/C (second compound 0.3 µM, first compound 0.01 µM) was 87.8%, the viability, T/C (second compound 0.3 µM, first compound 0.0316 µM) was 66.3% and the viability, T/C (second compound 0.3 µM, first compound 0.1 µM) was 45.4%. It also gave a viability, T/C (second compound 0.3 µM, first compound 0.316 µM) of 43.9%, a viability, T/C (second compound 0.3 µM, first compound 1 µM) of 33.2% and a viability, T/C (second compound 0.949 µM, first compound 0.00316 µM) of 87.3%. For the same molecule, the viability, T/C (second compound 0.949 µM, first compound 0.01 µM) was 86.3%, the viability, T/C (second compound 0.949 µM, first compound 0.0316 µM) was 64.2% and the viability, T/C (second compound 0.949 µM, first compound 0.1 µM) was 46.8%. The viability, T/C (second compound 0.949 µM, first compound 0.316 µM) was 40%, the viability, T/C (second compound 0.949 µM, first compound 1 µM) was 32% and the viability, T/C (second compound 3 µM, first compound 0.00316 µM) was 97.4%. It also gave a viability, T/C (second compound 3 µM, first compound 0.01 µM) of 89.2%, a viability, T/C (second compound 3 µM, first compound 0.0316 µM) of 61.5% and a viability, T/C (second compound 3 µM, first compound 0.1 µM) of 37.6%. It also gave a viability, T/C (second compound 3 µM, first compound 0.316 µM) of 37% and a viability, T/C (second compound 3 µM, first compound 1 µM) of 28.8%.

O=C(c1cc(Cc2n[nH]c(=O)c3ccccc23)ccc1F)N1CCN(C(=O)C2CC2)CC1 was tested, and the viability, T/C (compound 0.0316 µM) was 106% and 108% and 101%, the viability, T/C (compound 0.1 µM) was 98.9% and 98.3% and 106% and the viability, T/C (compound 0.316 µM) was 92.3% and 94.9% and 95%. The viability, T/C (compound 1 µM) was 96% and 91.9% and 93.1%, the viability, T/C (compound 3.16 µM) was 93.5% and 97.9% and 94.9% and the viability, T/C (compound 10 µM) was 76.2% and 81% and 83.6%. The pIC50 (curve of compound) was < 5.00.
